Experimental data published in patent US20080076824A1, “Compounds That Inhibit Replication Of Human Immunodeficiency Virus” (priority 2004, published 2008).
Values after ≈ are worked out from the molar mass of the structure shown. Like-named read-outs stand apart in the source and are kept apart here.

What was measured:
[1] = tested on: Herpes simplex virus-1 (KOS); conditions: HEL; reduces virus-induced cytopathogenicity by 50%
[2] = tested on: Herpes simplex virus-2 (G); conditions: HEL; reduces virus-induced cytopathogenicity by 50%
Vaccinia virus [3] = conditions: HEL; reduces virus-induced cytopathogenicity by 50%
[4] = tested on: Vesicular stomatitis virus; conditions: HEL; reduces virus-induced cytopathogenicity by 50%
[5] = tested on: Herpes simplex virus-1 TK^− KOS ACV^r; conditions: HEL; reduces virus-induced cytopathogenicity by 50%
[6] = Stability of synthetic compounds (no method given); type: physicochemical
HIV-2 (ROD) = experiment: microbe, parasite or virus in culture; type: cell-based; conditions: Human immunodeficiency virus 2, CCRF-CEM; Table 19; read-out: EC50 (CEM) HIV-2 (ROD)
Procedure: Human T-lymphocytic CEM cells (4.5×10^5 cells per ml) were suspended in fresh cell culture medium and infected with HIV-1 (IIIB and NL4.3) or HIV-2 (ROD or EHO) at 100 CCID50 (1 CCID50 being the virus dose infective for 50% of the cell cultures) per ml of cell suspension. Then, 100 μl of the infected cell suspension were transferred to microplate wells, mixed with 100 μl of appropriate (freshly prepared) dilutions of the test compounds (i.e., at final concentrations of […]), and were further incubated at 37° C. After 4 to 5 days, giant cell formation was recorded microscopically in the CEM cell cultures. […] (See Table 1).
(§1) MT-4, C8166 or CEM cells (4 to 5×10^5 cells per ml) were suspended in fresh culture medium (RPMI-1640 medium supplemented with 10% fetal bovine serum (FBS) (BioWittaker Europe, Verviers, Belgium), 2 mM L-glutamine and […] NaHCO3). Subsequently, the cells were infected with HIV-1 (IIIB) or HIV-2(ROD) at ˜100 CCID50 (1 CCID50 being the dose infective for 50% of the cell cultures) per ml of cell suspension. Then, 100 μl of the infected cell suspension were transferred to 96-well microplate wells, mixed with 100 μl of the appropriate (5-fold) dilutions of the test compounds and further incubated at 37° C. After 4 to 5 days, giant cell formation was recorded microscopically in the CEM and C8166 cell cultures. The MT-4 cell cultures were treated with trypan blue and the number of viable cells was determined.

HIV-1 (IIIB) [7] = experiment: microbe, parasite or virus in culture; conditions: Human immunodeficiency virus 1, IIIB
Procedure: as §1

HIV-2(ROD) = experiment: microbe, parasite or virus in culture
Procedure: as §1

[8] = Cytotoxicity (CC50) in MT-4 cells; type: cell-based; conditions: human, MT-4 cells
[9] = Cytotoxicity (CC50) in C8166 cells; type: cell-based; conditions: human, C8166 cells
human PBMC = experiment: Mitogenic activity assay, [3H]dThd incorporation in human PBMC with or without PHA; type: cell-based; conditions: concentrations up to 200 μg/ml, absence of PHA
Procedure: The mitogenic activity assay was conducted as follows. Human PBMC were isolated from buffy coats and brought in RPMI-1640 cell culture medium supplemented with 10% FCS and 2 mM L-glutamine. The cell cultures were exposed to several concentrations of the test compounds for 3 days in the absence or presence of PHA (phytohemagglutinin) (Murex Biotech Ltd., Dartford, UK) at 2 μg/ml. Subsequently, 0.25 μCi [CH3^−3H]dThd was added and, after 20 hr incubation at 37° C., the cells were precipitated in the presence of 10% TCA and the precipitate was washed twice with 10% TCA, twice with 5% TCA and once with 70% ethanol. The precipitate, containing [^3H]DNA, was then examined for radioactivity in a liquid scintillation counter.

in vitro = conditions: human
HIV-1 (IIIB) [10] = experiment: microbe, parasite or virus in culture; conditions: Human immunodeficiency virus 1, IIIB, CCRF-CEM
HIV (SF2 virus) = experiment: HIV infectivity assay, SF2-infected H9 cells, reverse transcriptase (RT) quantification in supernatant; type: cell-based
Coxsackie virus B4 [11] = experiment: Antiviral activity in HeLa cell cultures, Coxsackie virus B4; type: cell-based; conditions: Enterovirus B, B4, reduces virus-induced cytopathogenicity by 50%, read-out: Minimum inhibitory concentration Coxsackie virus B4
Procedure: (§2) The cytotoxicity and antiviral activity of various concentrations of G-NH2 and GPG-NH2 were evaluated in cell cultures that were infected with various types of viruses. Conventional host cell culture, viral infection, and infectivity analysis for each different type of cell and virus were followed. Compounds that were known to inhibit replication of the particular types of viruses analyzed were used as controls.

Coxsackie virus B4 [12] = experiment: Antiviral activity in Vero cell cultures, Coxsackie virus B4; type: cell-based; conditions: Enterovirus B, B4, reduces virus-induced cytopathogenicity by 50%, read-out: Minimum inhibitory concentration Coxsackie virus B4
Procedure: as §2

Parainfluenza-3 virus = experiment: organism not typed; conditions: Vero, read-out: Minimum inhibitory concentration Parainfluenza-3 virus
Reovirus-1 = experiment: organism not typed; conditions: Vero, read-out: Minimum inhibitory concentration Reovirus-1
[13] = tested on: Herpes simplex virus-1 (KOS); experiment: microbe, parasite or virus in culture; conditions: Human alphaherpesvirus 1, HEL, read-out: Minimum inhibitory concentration Herpes simplex virus-1 (KOS)
[14] = tested on: Herpes simplex virus-2 (G); experiment: microbe, parasite or virus in culture; conditions: Human alphaherpesvirus 2, HEL, read-out: Minimum inhibitory concentration Herpes simplex virus-2 (G)
Vaccinia virus [15] = experiment: microbe, parasite or virus in culture; conditions: Orthopoxvirus vaccinia, HEL, read-out: Minimum inhibitory concentration Vaccinia virus
[16] = tested on: Vesicular stomatitis virus; experiment: microbe, parasite or virus in culture; conditions: HEL, read-out: Minimum inhibitory concentration Vesicular stomatitis virus
[17] = tested on: Herpes simplex virus-1 TK^− KOS ACV^r; experiment: microbe, parasite or virus in culture; conditions: Human alphaherpesvirus 1, HEL, read-out: Minimum inhibitory concentration Herpes simplex virus-1 TK^− KOS ACV^r
[18] = tested on: Vesicular stomatitis virus; experiment: microbe, parasite or virus in culture; conditions: HeLa, read-out: Minimum inhibitory concentration Vesicular stomatitis virus
[19] = tested on: Respiratory syncytial virus; experiment: microbe, parasite or virus in culture; conditions: human respiratory syncytial virus, HeLa, read-out: Minimum inhibitory concentration Respiratory syncytial virus
Sindbis virus = experiment: microbe, parasite or virus in culture; conditions: Vero, read-out: Minimum inhibitory concentration Sindbis virus
Punta Toro virus = experiment: microbe, parasite or virus in culture; conditions: Vero, read-out: Minimum inhibitory concentration Punta Toro virus
[20] = C8166, read-out: EC50 (C8166) HIV-1 (IIIB), Table 19
[21] = C8166, read-out: EC50 (C8166) HIV-1 (IIIB), Table 20
[22] = MT4, read-out: EC50 (MT-4) HIV-1 (IIIB)
[23] = MT4, read-out: EC50 (MT-4) HIV-1(IIIB)
[24] = Human immunodeficiency virus 2, C8166, read-out: EC50 (C8166) HIV-2 (ROD), Table 19
[25] = Human immunodeficiency virus 2, C8166, read-out: EC50 (C8166) HIV-2 (ROD), Table 20
[26] = Human immunodeficiency virus 2, MT4, read-out: EC50 (MT-4) HIV-2 (ROD), Table 19
[27] = Human immunodeficiency virus 2, MT4, read-out: EC50 (MT-4) HIV-2 (ROD), Table 20
[28] = read-out: EC50 (CEM) HIV-1 (IIIB), Table 19
[29] = read-out: EC50 (CEM) HIV-1(IIIB), Table 20

Nc1nc2c(ncn2COCCO)c(=O)[nH]1 [ACG, reference compound]
Minimum inhibitory concentration Herpes simplex virus-1 (KOS) [1]: 0.0768 µg/mL (≈ 0.341 µM) | Minimum inhibitory concentration Herpes simplex virus-2 (G) [2]: 0.0768 µg/mL (≈ 0.341 µM) | Minimum inhibitory concentration Vaccinia virus (Vaccinia virus [3]): >400 µg/mL | Minimum inhibitory concentration Vesicular stomatitis virus [4]: >400 µg/mL | Minimum inhibitory concentration Herpes simplex virus-1 TK^− KOS ACV^r [5]: 9.6 µg/mL (≈ 42.6 µM)

Nc1nc2c(ncn2COC(CO)CO)c(=O)[nH]1 [DHPG, reference compound]
Minimum inhibitory concentration Herpes simplex virus-1 (KOS) [1]: 0.0038 µg/mL (≈ 0.0149 µM) | Minimum inhibitory concentration Herpes simplex virus-2 (G) [2]: 0.0192 µg/mL (≈ 0.0752 µM) | Minimum inhibitory concentration Vaccinia virus (Vaccinia virus [3]): 60 µg/mL (≈ 235 µM) | Minimum inhibitory concentration Vesicular stomatitis virus [4]: >400 µg/mL | Minimum inhibitory concentration Herpes simplex virus-1 TK^− KOS ACV^r [5]: 0.48 µg/mL (≈ 1.88 µM)

COC(N)C(N)=O (stereo not drawn) [Formula G, alpha-methoxyglycinamide]
stability [6]: more stable than alpha-hydroxyglycinamide

CN1C(=O)C(C)(C)NNC1=S [Formula K]
EC50 (HIV-2 (ROD)): 65 ± 18 µM | EC50 (HIV-1 (IIIB) [7]; [20]): 346 µM | EC50 (HIV-1 (IIIB) [7]; [21]): 289 ± 81 µM | EC50 (HIV-1 (IIIB) [7]; [22]): > 580 µM | EC50 (HIV-1 (IIIB) [7]; [23]): > 1000 µM | EC50 (HIV-2(ROD); [24]): > 580 µM | EC50 (HIV-2(ROD); [25]): > 230 µM | EC50 (HIV-2(ROD); [26]): > 580 µM | EC50 (HIV-2(ROD); [27]): > 1000 µM | CC50 [8]: 906 ± 179 µM | CC50 [9]: 896 ± 265 µM | mitogenic activity against human PBMCs (human PBMC): non-mitogenic | CC50 at 96 hr (in vitro): ≥ 1150 µM | EC50 (HIV-1 (IIIB) [10]; [28]): 115 µM | EC50 (HIV-1 (IIIB) [10]; [29]): 115 µM

CN1C(=O)C2(CCCCC2)NNC1=S [Formula M]
EC50 (HIV-2 (ROD)): 48 ± 14 µM | EC50 (HIV-1 (IIIB) [7]; [20]): > 480 µM | EC50 (HIV-1 (IIIB) [7]; [21]): > 190 µM | EC50 (HIV-1 (IIIB) [7]; [22]): > 480 µM | EC50 (HIV-1 (IIIB) [7]; [23]): > 900 µM | EC50 (HIV-2(ROD); [24]): 480 µM | EC50 (HIV-2(ROD); [25]): > 190 µM | EC50 (HIV-2(ROD); [26]): > 480 µM | EC50 (HIV-2(ROD); [27]): > 900 µM | CC50 [8]: 455 ± 4.6 µM | CC50 [9]: 488 ± 3.3 µM | mitogenic activity against human PBMCs (human PBMC): non-mitogenic | CC50 at 96 hr (in vitro): ≥ 930 µM | EC50 (HIV-1 (IIIB) [10]; [28]): 97 ± 42 µM | EC50 (HIV-1 (IIIB) [10]; [29]): 97 ± 42 µM

CC(C)C(N)C(=O)NC(O)C(N)=O [Formula Y, N-L-Valyl-α-Hydroxyglycinamide]
HIV replication at 25 μM (HIV (SF2 virus); 25 μM): neglible levels | IC50 (HIV (SF2 virus); Human immunodeficiency virus 1, H9, 264 h, RT quantification, day 11, read-out: IC50): ~16 µM | stability [6]: stable

NC(=O)c1ncn([C@@H]2O[C@H](CO)[C@@H](O)[C@H]2O)n1 [Ribavirin]
EC50 (Coxsackie virus B4 [11]): 48 µg/mL (≈ 197 µM) | EC50 (Coxsackie virus B4 [12]): > 400 µg/mL | EC50 (Parainfluenza-3 virus): 48 µg/mL (≈ 197 µM) | EC50 (Reovirus-1): 16 µg/mL (≈ 65.5 µM) | EC50 [13]: 48 µg/mL (≈ 197 µM) | EC50 [14]: > 400 µg/mL | EC50 (Vaccinia virus [15]): 240 µg/mL (≈ 983 µM) | EC50 [16]: > 400 µg/mL | EC50 [17]: 80 µg/mL (≈ 328 µM) | EC50 [18]: 9.6 µg/mL (≈ 39.3 µM) | EC50 [19]: 16 µg/mL (≈ 65.5 µM) | EC50 (Sindbis virus): > 400 µg/mL | EC50 (Punta Toro virus): 48 µg/mL (≈ 197 µM)
